From PubChem BioAssay AID302 (DTP/NCI, 2004)
“And” between values parts separate entries of the source, which are not always exact repeats. Identical values can stand only once. Inconclusive results and toxic doses are left out. Rule for the calls: active = survival T/C of 150% or more; inactive = T/C below 125% in these data. Starred links: 1 amine or outer side, 2 acyl side, 3 side chain; linkers in the order of their positions; H or OH if unused. Positions of bridges follow the written chain, without caps; N, C: chain ends. Non-standard residues stand in square brackets, D forms with d. Residues, ends and D or L forms follow the SMILES beside them. Chains are numbered I, II in the order given. Actinocin(9to1) = Cc1c2oc3c(C)ccc(C(=O)[*:1])c3nc-2c(C(=O)[*:2])c(N)c1=O; NMeV = CN[CH](C(=O)O)C(C)C; Sar = CNCC(=O)O

Test system: BALB/c mice, Madison 109 lung carcinoma i.m., survival
Assay: NCI In Vivo Anticancer Drug Screen. Data for tumor model Madison 109 Lung Carcinoma (intramuscular) in BALB/CM mice
Details: endpoint: median survival time, higher = longer survival
Method: The antitumor activity of compounds was measured in mice bearing transplantable tumors. Survival or tumor size were measured and the results are expressed as the measurement made in the treated group (T) divided by the measurement made in the vehicle treated control group (C). The tumor model used in this assay is Madison 109 Lung Carcinoma (intramuscular) in BALB/CM mice

[1] = dose: 0.12 mg/kg/injection, schedule: Q01DX009 (ip), vehicle: saline
[2] = dose: 0.25 mg/kg/injection, schedule: Q01DX009 (ip), vehicle: saline
[3] = dose: 32.0 mg/kg/injection, schedule: Q01DX009 (ip), vehicle: saline with Tween-80
[4] = dose: 64.0 mg/kg/injection, schedule: Q01DX009 (ip), vehicle: saline with Tween-80
[5] = dose: 25.0 mg/kg/injection, schedule: Q01DX009 (ip), vehicle: saline
[6] = dose: 100.0 mg/kg/injection, schedule: Q01DX009 (ip), vehicle: saline
[7] = dose: 0.5 mg/kg/injection, schedule: Q01DX009 (ip), vehicle: saline
[8] = dose: 1.0 mg/kg/injection, schedule: Q01DX009 (ip), vehicle: saline
[9] = dose: 6.25 mg/kg/injection, schedule: Q01DX009 (ip), vehicle: saline with Tween-80
[10] = dose: 12.5 mg/kg/injection, schedule: Q01DX009 (ip), vehicle: saline with Tween-80
[11] = dose: 25.0 mg/kg/injection, schedule: Q01DX009 (ip), vehicle: saline with Tween-80
[12] = dose: 50.0 mg/kg/injection, schedule: Q01DX009 (ip), vehicle: saline with Tween-80
[13] = dose: 3.12 mg/kg/injection, schedule: Q01DX009 (ip), vehicle: saline with Tween-80
[14] = dose: 32.0 mg/kg/injection, schedule: Q01DX009 (ip), vehicle: saline

Measured: T/C

COc1cccc2c1C(=O)c1c(O)c3c(c(O)c1C2=O)C[C@@](O)(/C(C)=N/NC(=O)c1ccccc1)C[C@@H]3OC1CC(N)C(O)C(C)O1 (some centres undefined)
inactive: dose: 0.25 mg/kg/injection, schedule: Q01DX009 (ip), vehicle: saline with Tween-80 104 % of control | dose: 0.5 mg/kg/injection, schedule: Q01DX009 (ip), vehicle: saline with Tween-80 111 % of control | dose: 1.0 mg/kg/injection, schedule: Q01DX009 (ip), vehicle: saline with Tween-80 124 % of control | dose: 2.0 mg/kg/injection, schedule: Q01DX009 (ip), vehicle: saline with Tween-80 86 % of control and 118 % of control

Cc1c2oc3c(C)ccc(C(=O)NC4C(=O)NC(C(C)C)C(=O)N5CCCC5C(=O)N(C)CC(=O)N(C)C(C(C)C)C(=O)OC4C)c3nc-2c(C(=O)NC2C(=O)NC(C(C)C)C(=O)N3CCCC3C(=O)N(C)CC(=O)N(C)C(C(C)C)C(=O)OC2C)c(N)c1=O (centres undefined) (I: TVP[Sar][NMeV] / II: TVP[Sar][NMeV]; ester I:1-I:C, II:1-II:C; linker I:N-II:N via Actinocin(9to1); configuration not given here)
inactive: dose: 0.03 mg/kg/injection, schedule: Q01DX009 (ip), vehicle: saline 101 % of control | dose: 0.06 mg/kg/injection, schedule: Q01DX009 (ip), vehicle: saline 107 % of control | [1] 101 % of control | [2] 119 % of control

O=c1cc[nH]c(=O)[nH]1
inactive: [3] 95 % of control and 110 % of control | [4] 96 % of control and 110 % of control | dose: 128.0 mg/kg/injection, schedule: Q01DX009 (ip), vehicle: saline with Tween-80 102 % of control and 105 % of control | dose: 256.0 mg/kg/injection, schedule: Q01DX009 (ip), vehicle: saline with Tween-80 100 % of control and 110 % of control | dose: 512.0 mg/kg/injection, schedule: Q01DX009 (ip), vehicle: saline with Tween-80 94 % of control and 107 % of control

O=C1C=CC(=O)O1 (tested in a mixture with another compound)
inactive: dose: 12.5 mg/kg/injection, schedule: Q01DX009 (ip), vehicle: saline 113 % of control | [5] 110 % of control | dose: 50.0 mg/kg/injection, schedule: Q01DX009 (ip), vehicle: saline 104 % of control | [6] 110 % of control

COc1cc2c(c(OC)c1OC)-c1ccc(OC)c(=O)cc1[C@@H](NC(C)=O)CC2
inactive: dose: 0.13 mg/kg/injection, schedule: Q01DX009 (ip), vehicle: saline 104 % of control | [2] 104 % of control | [7] 108 % of control | [8] 104 % of control

ClC1=C(Cl)C2(Cl)C3C(Cl)C(Cl)CC3C1(Cl)C2(Cl)Cl (centres undefined)
inactive: [9] 110 % of control and 113 % of control | [10] 100 % of control and 120 % of control | [11] 89 % of control and 95 % of control | [12] 102 % of control and 116 % of control

CN(CO)c1nc(N(C)CO)nc(N(C)CO)n1
inactive: dose: 1.56 mg/kg/injection, schedule: Q01DX009 (ip), vehicle: saline with Tween-80 94 % of control and 101 % of control | [13] 100 % of control and 112 % of control | [9] 100 % of control and 120 % of control | [10] 107 % of control and 114 % of control | [11] 104 % of control and 108 % of control | [12] 120 % of control

COc1cccc2c1C(=O)c1c(O)c3c(c(O)c1C2=O)C[C@@](O)(C(=O)CO)C[C@@H]3OC1CC(N)C(O)C(C)O1 (some centres undefined)
inactive: [1] 110 % of control | dose: 0.12 mg/kg/injection, schedule: Q01DX009 (ip), vehicle: water 122 % of control | [2] 114 % of control | [7] 112 % of control and 116 % of control | dose: 0.5 mg/kg/injection, schedule: Q01DX009 (ip), vehicle: water 119 % of control | [8] 94 % of control and 111 % of control | dose: 1.0 mg/kg/injection, schedule: Q01DX009 (ip), vehicle: water 115 % of control | dose: 10.0 micrograms/mouse/injection, schedule: Q01DX005 (ip), vehicle: saline 96 % of control | dose: 20.0 micrograms/kg/injection, schedule: Q01DX005 (ip), vehicle: saline 123 % of control | dose: 20.0 micrograms/mouse/injection, schedule: Q01DX005 (ip), vehicle: saline 102 % of control | dose: 40.0 micrograms/kg/injection, schedule: Q01DX005 (ip), vehicle: saline 115 % of control | dose: 40.0 micrograms/mouse/injection, schedule: Q01DX005 (ip), vehicle: saline 105 % of control

N=C(N)c1ccc(/C=C/c2ccc(C(=N)N)cc2)cc1
inactive: dose: 4.0 mg/kg/injection, schedule: Q01DX009 (ip), vehicle: saline with Tween-80 106 % of control | dose: 8.0 mg/kg/injection, schedule: Q01DX009 (ip), vehicle: saline with Tween-80 109 % of control | [3] 119 % of control | [4] 116 % of control

O=C(O)CCCc1ccc(N(CCCl)CCCl)cc1
inactive: dose: 1.5 mg/kg/injection, schedule: Q01DX009 (ip), vehicle: saline with Tween-80 103 % of control | dose: 3.0 mg/kg/injection, schedule: Q01DX009 (ip), vehicle: saline with Tween-80 101 % of control | dose: 6.0 mg/kg/injection, schedule: Q01DX009 (ip), vehicle: saline with Tween-80 88 % of control

O=c1ccn(C2OC(CO)C(O)C2O)c(=O)[nH]1 (centres undefined)
inactive: [14] 111 % of control | dose: 64.0 mg/kg/injection, schedule: Q01DX009 (ip), vehicle: saline 99 % of control | dose: 128.0 mg/kg/injection, schedule: Q01DX009 (ip), vehicle: saline 93 % of control | dose: 256.0 mg/kg/injection, schedule: Q01DX009 (ip), vehicle: saline 104 % of control | dose: 512.0 mg/kg/injection, schedule: Q01DX009 (ip), vehicle: saline 98 % of control

O=C(N[C@H](CO)[C@H](O)c1ccc([N+](=O)[O-])cc1)C(Cl)Cl
inactive: dose: 100.0 mg/kg/injection, schedule: Q01DX009 (ip), vehicle: saline with Tween-80 118 % of control | dose: 200.0 mg/kg/injection, schedule: Q01DX009 (ip), vehicle: saline with Tween-80 107 % of control | dose: 400.0 mg/kg/injection, schedule: Q01DX009 (ip), vehicle: saline with Tween-80 118 % of control

CNNCc1ccc(C(=O)NC(C)C)cc1
inactive: [5] 116 % of control | [6] 114 % of control

c1ccc([C@H]2CN3CCSC3=N2)cc1
inactive: dose: 5.0 mg/kg/injection, schedule: Q01DX009 (ip), vehicle: saline 94 % of control | dose: 10.0 mg/kg/injection, schedule: Q01DX009 (ip), vehicle: saline 96 % of control | dose: 20.0 mg/kg/injection, schedule: Q01DX009 (ip), vehicle: saline 103 % of control

C[C@]12C=CC(=O)C=C1CC[C@@H]1[C@@H]2C(=O)C[C@@]2(C)[C@H]1CC[C@]2(O)C(=O)CO
inactive: dose: 5.0 mg/kg/injection, schedule: Q01DX009 (ip), vehicle: saline with Tween-80 95 % of control | dose: 10.0 mg/kg/injection, schedule: Q01DX009 (ip), vehicle: saline with Tween-80 98 % of control | dose: 20.0 mg/kg/injection, schedule: Q01DX009 (ip), vehicle: saline with Tween-80 97 % of control | dose: 40.0 mg/kg/injection, schedule: Q01DX009 (ip), vehicle: saline with Tween-80 92 % of control | dose: 80.0 mg/kg/injection, schedule: Q01DX009 (ip), vehicle: saline with Tween-80 92 % of control

CCN(CC)CCOc1ccc2c(c1)C(=O)c1cc(OCCN(CC)CC)ccc1-2
inactive: dose: 16.0 mg/kg/injection, schedule: Q01DX009 (ip), vehicle: saline 101 % of control | [14] 108 % of control | dose: 62.0 mg/kg/injection, schedule: Q01DX009 (ip), vehicle: saline 103 % of control

O=C1C2(Cl)C3(Cl)C4(Cl)C(Cl)(Cl)C5(Cl)[C@]3(Cl)C1(Cl)[C@]5(Cl)C24Cl (some centres undefined)
inactive: [13] 112 % of control | [9] 118 % of control | [10] 121 % of control
